Laboratory results reported in ChEMBL document CHEMBL1132891, “Carbacyclic peptide mimetics as VCAM-VLA-4 antagonists” (Bioorg Med Chem Lett, 2000).

Biological target: T1, Integrin alpha-4 (Homo sapiens, UniProt P13612)
T1 sequence (P13612 whole entry): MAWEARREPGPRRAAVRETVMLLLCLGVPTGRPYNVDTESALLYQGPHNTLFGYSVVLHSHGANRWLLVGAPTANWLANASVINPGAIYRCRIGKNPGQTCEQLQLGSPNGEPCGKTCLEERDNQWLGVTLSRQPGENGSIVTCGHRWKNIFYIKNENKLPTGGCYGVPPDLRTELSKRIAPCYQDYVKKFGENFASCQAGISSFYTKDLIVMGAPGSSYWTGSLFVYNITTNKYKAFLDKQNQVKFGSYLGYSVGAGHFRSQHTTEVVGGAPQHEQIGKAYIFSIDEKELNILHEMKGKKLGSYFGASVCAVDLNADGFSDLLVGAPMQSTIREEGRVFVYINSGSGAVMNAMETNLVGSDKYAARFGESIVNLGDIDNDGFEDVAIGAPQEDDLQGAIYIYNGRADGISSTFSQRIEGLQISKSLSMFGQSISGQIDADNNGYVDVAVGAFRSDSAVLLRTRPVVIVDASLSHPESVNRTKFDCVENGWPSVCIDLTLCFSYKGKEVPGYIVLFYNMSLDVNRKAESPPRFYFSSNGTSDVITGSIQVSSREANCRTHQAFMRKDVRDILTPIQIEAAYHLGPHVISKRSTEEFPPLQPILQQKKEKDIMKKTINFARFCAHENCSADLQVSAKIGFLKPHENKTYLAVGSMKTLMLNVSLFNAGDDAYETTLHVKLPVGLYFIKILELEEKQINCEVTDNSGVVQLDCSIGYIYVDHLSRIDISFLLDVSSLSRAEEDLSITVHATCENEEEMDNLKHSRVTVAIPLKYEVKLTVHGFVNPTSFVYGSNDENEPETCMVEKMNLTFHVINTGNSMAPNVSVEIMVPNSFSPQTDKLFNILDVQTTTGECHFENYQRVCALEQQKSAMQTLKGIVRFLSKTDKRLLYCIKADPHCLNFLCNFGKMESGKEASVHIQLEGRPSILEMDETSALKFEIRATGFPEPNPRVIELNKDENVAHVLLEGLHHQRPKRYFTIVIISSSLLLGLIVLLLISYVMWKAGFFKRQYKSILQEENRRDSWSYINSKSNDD
Experiment: Inhibitory concentration against VLA-4 receptor using human VCAM-VLA-4 binding assay

Row | Structure (SMILES) | IC50
1 | N[C@@H](Cc1ccc(O)cc1)C(=O)N/C1=C/CCCC[C@@H](C(=O)O)NC(=O)C2(CCCC2)CCNC1=O | 330 nM
2 | N[C@@H](Cc1ccc(O)cc1)C(=O)N[C@H]1CSSC[C@@H](C(=O)O)NC(=O)C2(CCCC2)CCNC1=O | 0.5 nM
3 | N[C@@H](Cc1ccc(O)cc1)C(=O)N/C1=C/CCC[C@@H](C(=O)O)NC(=O)C2(CCCC2)CCNC1=O | 160 nM
4 | N[C@@H](Cc1ccc(O)cc1)C(=O)NC1CCCC[C@@H](C(=O)O)NC(=O)C2(CCCC2)CCNC1=O (stereo in doubt; 14a) | 44 nM
5 | N[C@@H](Cc1ccc(O)cc1)C(=O)NC1CCCCC[C@@H](C(=O)O)NC(=O)C2(CCCC2)CCNC1=O (stereo in doubt; 14b) | 550 nM
6 | N[C@@H](Cc1ccc(O)cc1)C(=O)NC1CCCC[C@@H](C(=O)O)NC(=O)C2(CCCC2)CCNC1=O (stereo in doubt; 15a) | 89 nM
7 | N[C@@H](Cc1ccc(O)cc1)C(=O)NC1CCCCC[C@@H](C(=O)O)NC(=O)C2(CCCC2)CCNC1=O (stereo in doubt; 15b) | 750 nM
